Measurements as given in ChEMBL document CHEMBL1145176, “Somatostatin receptor 1 selective analogues: 2. N(alpha)-Methylated scan” (J Med Chem, 2005).

Experiments:
[1] = biological target: Somatostatin receptor type 3 (Homo sapiens, UniProt P32745); experiment: Inhibition of [Leu8,D-Trp22,125I-Tyr25]SRIF-28 binding to human somatostatin receptor type 3
[2] = biological target: Somatostatin receptor type 4 (Homo sapiens, UniProt P31391); experiment: Inhibition of [Leu8,D-Trp22,125I-Tyr25]SRIF-28 binding to human somatostatin receptor type 4
[3] = biological target: Somatostatin receptor type 1 (Homo sapiens, UniProt P30872); experiment: Inhibition of [Leu8,D-Trp22,125I-Tyr25]SRIF-28 binding to human somatostatin receptor type 1
[4] = biological target: Somatostatin receptor type 5 (Homo sapiens, UniProt P35346); experiment: Inhibition of [Leu8,D-Trp22,125I-Tyr25]SRIF-28 binding to human somatostatin receptor type 5
[5] = biological target: Somatostatin receptor type 2 (Homo sapiens, UniProt P30874); experiment: Inhibition of [Leu8,D-Trp22,125I-Tyr25]SRIF-28 binding to human somatostatin receptor type 2
Somatostatin receptor type 2, sequence (P30874 whole entry): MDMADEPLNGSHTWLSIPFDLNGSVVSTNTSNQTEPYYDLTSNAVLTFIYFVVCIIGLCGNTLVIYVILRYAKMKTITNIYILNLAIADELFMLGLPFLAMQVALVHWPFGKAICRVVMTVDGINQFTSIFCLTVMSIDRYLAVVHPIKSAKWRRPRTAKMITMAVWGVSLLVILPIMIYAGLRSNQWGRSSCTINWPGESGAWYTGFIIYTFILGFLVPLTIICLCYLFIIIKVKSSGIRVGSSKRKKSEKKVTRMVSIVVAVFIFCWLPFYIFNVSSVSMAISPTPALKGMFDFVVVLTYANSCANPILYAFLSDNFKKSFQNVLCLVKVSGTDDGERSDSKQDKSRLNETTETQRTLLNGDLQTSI

Somatostatin receptor type 4, sequence (P31391 whole entry): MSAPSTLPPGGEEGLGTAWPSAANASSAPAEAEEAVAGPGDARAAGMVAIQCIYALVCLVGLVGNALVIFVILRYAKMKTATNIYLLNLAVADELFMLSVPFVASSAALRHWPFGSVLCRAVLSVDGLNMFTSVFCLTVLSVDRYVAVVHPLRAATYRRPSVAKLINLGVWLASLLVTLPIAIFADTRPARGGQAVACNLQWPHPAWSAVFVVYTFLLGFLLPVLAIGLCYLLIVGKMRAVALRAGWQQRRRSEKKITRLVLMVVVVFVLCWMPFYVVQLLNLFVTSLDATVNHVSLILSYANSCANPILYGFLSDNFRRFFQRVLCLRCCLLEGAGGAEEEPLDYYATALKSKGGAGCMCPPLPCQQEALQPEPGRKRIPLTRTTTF
Somatostatin receptor type 1, sequence (P30872 whole entry): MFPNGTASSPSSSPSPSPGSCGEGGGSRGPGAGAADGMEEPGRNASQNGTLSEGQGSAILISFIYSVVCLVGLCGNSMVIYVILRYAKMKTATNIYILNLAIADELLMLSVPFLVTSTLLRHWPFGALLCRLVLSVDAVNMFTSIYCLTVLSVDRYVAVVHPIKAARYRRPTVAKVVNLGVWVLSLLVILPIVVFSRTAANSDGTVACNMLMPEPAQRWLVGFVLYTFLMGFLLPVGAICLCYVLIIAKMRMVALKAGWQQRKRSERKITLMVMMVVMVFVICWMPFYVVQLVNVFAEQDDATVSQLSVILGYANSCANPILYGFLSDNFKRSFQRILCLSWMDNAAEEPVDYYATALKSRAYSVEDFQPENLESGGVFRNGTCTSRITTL
Somatostatin receptor type 3, sequence (P32745 whole entry): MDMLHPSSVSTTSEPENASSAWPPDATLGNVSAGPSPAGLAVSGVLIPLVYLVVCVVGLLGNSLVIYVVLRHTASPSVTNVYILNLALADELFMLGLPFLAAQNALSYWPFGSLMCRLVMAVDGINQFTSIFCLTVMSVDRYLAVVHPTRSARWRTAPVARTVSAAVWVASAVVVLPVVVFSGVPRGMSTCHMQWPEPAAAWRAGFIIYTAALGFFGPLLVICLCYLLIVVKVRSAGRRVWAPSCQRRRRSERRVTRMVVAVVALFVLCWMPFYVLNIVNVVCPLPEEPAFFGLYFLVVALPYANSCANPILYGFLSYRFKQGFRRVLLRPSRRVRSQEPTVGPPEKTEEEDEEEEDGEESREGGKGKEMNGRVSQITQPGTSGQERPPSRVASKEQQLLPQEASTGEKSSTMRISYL
Somatostatin receptor type 5, sequence (P35346 whole entry): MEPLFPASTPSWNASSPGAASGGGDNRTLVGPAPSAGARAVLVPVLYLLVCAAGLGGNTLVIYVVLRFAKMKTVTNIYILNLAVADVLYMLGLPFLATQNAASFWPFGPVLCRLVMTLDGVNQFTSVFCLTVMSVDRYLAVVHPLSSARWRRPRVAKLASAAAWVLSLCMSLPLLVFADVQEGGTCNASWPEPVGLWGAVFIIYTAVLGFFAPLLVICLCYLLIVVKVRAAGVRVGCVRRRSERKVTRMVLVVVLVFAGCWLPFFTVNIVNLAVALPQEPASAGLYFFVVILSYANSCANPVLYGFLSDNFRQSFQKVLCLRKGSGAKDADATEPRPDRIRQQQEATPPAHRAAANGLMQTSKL

SMILES | IC50 [1] [nM] | IC50 [2] [nM] | IC50 [3] [nM] | IC50 [4] [nM] | IC50 [5] [nM]
CC(C)NCc1ccc(C[C@@H]2NC(=O)[C@@H](Cc3ccc4ccccc4c3)NC(=O)[C@H](Cc3ccccc3)NC(=O)[C@H](Cc3ccccc3)NC(=O)[C@H](CCCCN)NC(=O)[C@@H](N)CSSC[C@@H](C(=O)O)NC(=O)[C@H](CO)N(C)C(=O)[C@H]([C@@H](C)O)NC(=O)[C@H](Cc3ccccc3)NC(=O)[C@H]([C@@H](C)O)NC2=O)cc1 | > 1000 | > 1000 | 71 | > 1000 | > 1000
CN[C@H]1CSSC[C@@H](C(=O)O)NC(=O)[C@H](CO)NC(=O)[C@H]([C@@H](C)O)NC(=O)[C@H](Cc2ccccc2)NC(=O)[C@H]([C@@H](C)O)NC(=O)[C@H](Cc2ccc(CNC(C)C)cc2)NC(=O)[C@@H](Cc2c[nH]c3ccccc23)NC(=O)[C@H](Cc2ccccc2)NC(=O)[C@H](Cc2ccccc2)NC(=O)[C@H](CCCCN)NC1=O | > 1000 | > 1000 | 14 | > 1000 | > 1000
CC(C)NCc1ccc(C[C@@H]2NC(=O)[C@@H](Cc3ccc4ccccc4c3)N(C)C(=O)[C@H](Cc3ccccc3)NC(=O)[C@H](Cc3ccccc3)NC(=O)[C@H](CCCCN)NC(=O)[C@@H](N)CSSC[C@@H](C(=O)O)NC(=O)[C@H](CO)NC(=O)[C@H]([C@@H](C)O)NC(=O)[C@H](Cc3ccccc3)NC(=O)[C@H]([C@@H](C)O)NC2=O)cc1 | > 1000 | > 1000 | 325 | > 1000 | > 1000
CC(C)NCc1ccc(C[C@@H]2NC(=O)[C@@H](Cc3ccc4ccccc4c3)NC(=O)[C@H](Cc3ccccc3)NC(=O)[C@H](Cc3ccccc3)NC(=O)[C@H](CCCCN)NC(=O)[C@@H](N)CSSC[C@@H](C(=O)O)NC(=O)[C@H](CO)NC(=O)[C@H]([C@@H](C)O)NC(=O)[C@H](Cc3ccccc3)N(C)C(=O)[C@H]([C@@H](C)O)NC2=O)cc1 | > 1000 | > 1000 | 583 | > 1000 | > 1000
CC(C)NCc1ccc(C[C@@H]2NC(=O)[C@@H](Cc3ccc4ccccc4c3)NC(=O)[C@H](Cc3ccccc3)NC(=O)[C@H](Cc3ccccc3)NC(=O)[C@H](CCCCN)NC(=O)[C@@H](N)CSSC[C@@H](C(=O)O)NC(=O)[C@H](CO)NC(=O)[C@H]([C@@H](C)O)NC(=O)[C@H](Cc3ccccc3)NC(=O)[C@H]([C@@H](C)O)N(C)C2=O)cc1 | > 1000 | > 1000 | > 1000 | > 1000 | > 1000
CC(C)NCc1ccc(C[C@@H]2NC(=O)[C@@H](Cc3ccc4ccccc4c3)NC(=O)[C@H](Cc3ccccc3)NC(=O)[C@H](Cc3ccccc3)NC(=O)[C@H](CCCCN)NC(=O)[C@@H](N)CSSC[C@@H](C(=O)O)NC(=O)[C@H](CO)NC(=O)[C@H]([C@@H](C)O)N(C)C(=O)[C@H](Cc3ccccc3)NC(=O)[C@H]([C@@H](C)O)NC2=O)cc1 | > 1000 | 417 | 176 | > 1000 | > 1000
CC(C)NCc1ccc(C[C@@H]2NC(=O)[C@@H](Cc3ccc4ccccc4c3)NC(=O)[C@H](Cc3ccccc3)NC(=O)[C@H](Cc3ccccc3)NC(=O)[C@H](CCCCN)NC(=O)[C@@H](N)CSSC[C@@H](C(=O)O)N(C)C(=O)[C@H](CO)NC(=O)[C@H]([C@@H](C)O)NC(=O)[C@H](Cc3ccccc3)NC(=O)[C@H]([C@@H](C)O)NC2=O)cc1 | > 1000 | > 1000 | 260 | > 1000 | > 1000
CC(C)NCc1ccc(C[C@@H]2NC(=O)[C@@H](Cc3ccc4ccccc4c3)NC(=O)[C@H](Cc3ccccc3)N(C)C(=O)[C@H](Cc3ccccc3)NC(=O)[C@H](CCCCN)NC(=O)[C@@H](N)CSSC[C@@H](C(=O)O)NC(=O)[C@H](CO)NC(=O)[C@H]([C@@H](C)O)NC(=O)[C@H](Cc3ccccc3)NC(=O)[C@H]([C@@H](C)O)NC2=O)cc1 | > 1000 | > 1000 | > 1000 | > 1000 | > 1000
